Reference: patent US8247460B2, “Method of treatment for muscular dystrophy” (priority 2006, dated 2012)
Read-outs that look alike come from different tables or passages of the source.

Legend:
[1] = tested on: alpha-SG-null C57BL/6 mouse; assay: Histology: number of inflammatory infiltrates in muscle sections; assay type: in vivo; details: alpha-SG-null mice, drugs daily in the diet, 30 days of treatment, n = 4
Experimental: FIG. 3: alpha-SG-null C57BL/6 mice were treated for 30 days with the indicated drugs, or combinations of drugs incorporated into the diet as described in the Methods. Tibialis anterior muscles were dissected and frozen in liquid nitrogen-cooled isopentane. The number of inflammatory infiltrates was measured on Azan-Mallory-stained serial muscle sections.
(§1) The alpha-SG-null C57BL/6 mouse, one of the most severe models of muscular dystrophy was used. In some experiments wild type (wt) C57BL/6 mouse were used as internal further control.
(§2) In the in vivo experiments the drugs were administered daily in the diet to three months old animals for 30 days. The dose of aspirin was 80 mg/kg, the dose of ISMN was 35 mg/kg and that of ISDN was 10 mg/kg, while the dose of ibuprofen was 15 mg/kg. Prednisolone was used as reference drug at the dose of 2 mg/kg. When combinations of drugs were used, the drugs were both incorporated in the same diet. Control animals received the same diet without any drug incorporation.
(§3) Diaphragm and tibialis anterior of untreated and drug-treated mice were isolated and included in Killik® frozen section medium, quickly frozen and cut into 8-μm thick sections with the muscle fibres oriented transversely using a cryostat. Sections were stained with either Hematoxylin&Eosin or Azan Mallory, to evaluate the number of inflammatory infiltrates and necrotic fibres ([…] sections per tissue), respectively.

[2] = tested on: alpha-SG-null C57BL/6 mouse; assay: Histology: number of necrotic fibres in muscle sections; assay type: in vivo; details: alpha-SG-null mice, drugs daily in the diet, 30 days of treatment, n = 4
Experimental: FIG. 4: alpha-SG-null C57BL/6 mice were treated for 30 days with the indicated drugs, or combinations of drugs incorporated into the diet as described in the Methods. Diaphragm muscles were dissected, frozen in liquid nitrogen-cooled isopentane and stained with hematoxilin & eosin according to standard procedures.
as §1, §2, §3

[3] = tested on: alpha-SG-null C57BL/6 mouse; assay type: in vivo
Experimental: FIG. 1: alpha-sarcoglycan (SG)-null C57BL/6 mice were treated for 30 days with the indicated drugs, or combinations of drugs incorporated into the diet as described in the Methods. Serum creatin kinase (CK) concentrations were measured from mouse blood samples obtained by tail vein withdrawal using the indirect colorimetric assay (Roche Diagnostics), following standard procedures.
as §1, §2
Quantitative determination of creatine kinase activity in serum of control and drug treated-animals was measured using creatine kinase reagent (Randox, CK110), according to the manufacturer's instructions. Blood was collected from tail vein and serum obtained after centrifugation at 13000 rpm for 10 minutes was stored at −80° C. before measurements.

[4] = tested on: alpha-SG-null C57BL/6 mouse; assay: Free wheel running (voluntary running wheel activity); assay type: in vivo; details: alpha-SG-null mice, drugs daily in the diet, 30 days of treatment, n = 4
Experimental: FIG. 2: alpha-SG-null C57BL/6 mice were treated for 30 days with the indicated drugs, or combinations of drugs incorporated into the diet as described in the Methods. Locomotor performance was measured through the Running Wheel Activity, to this end mice were housed individually in cages equipped with a Trixie running wheel. Each wheel revolution was registered through a magnetic switch, which was connected to a counter. The number of revolutions was recorded daily for 6 days. […] The results of 9 experiments ±S.E.M of Running Wheel Activity measured in wild type (wt) C57BL/6 mice are also reported.
as §1, §2
Voluntary wheel running was used as the exercise paradigm to avoid any physiological changes that may occur due to the stress of forced treadmill running. Mice were housed individually in cages equipped with a Trixie running wheel. Each wheel revolution was registered through a magnetic switch, which was connected to a counter. The number of revolutions was recorded daily for 6 days.

[5] = tested on: Satellite cells from alpha-SG-null C57BL/6 mice; assay: Fusion index of differentiating satellite cells; assay type: cell-based, mouse; details: for Fusion index: n = 4; for Fusion index compared to control cells, in words: satellite cells, 48 and 72 h
Experimental: FIG. 6: Satellite cells from alpha-SG-null C57BL/6 mice were isolated from 3-5 days old mice and induced to differentiate in the presence of the indicated drugs as described in the methods. Fusion index was determined at 48 and 72 h as the number of nuclei in sarcomeric myosin-expressing cells with more than 2 nuclei vs the total number of nuclei.
In the in vitro experiments, the drugs were applied to satellite cells at the concentration of 100 μM for ISMN, 50 μM for ISDN, 10 μM for ibuprofen, 50 μM for aspirin and 30 μM for prednisolone. When combinations of drugs were used, the drugs were administered at the same time.
Satellite cells were isolated from 3-5 days old mice as described previously with some modifications. In particular, after 3 days from isolation, proliferating myoblasts were harvested, counted, and plated on tissue culture plastic dishes coated with 1 mg/ml type I collagen (SIGMA, C9791). […] Preparations showing less than 90% myogenic cells were discarded. […] Growth medium contained IMDM medium supplemented with 20% Fetal Bovine Serum, 3% Chick Embryo Extract, 100 U/ml Penicillin, 100 μg/ml Streptomycin, 50 μg/ml Gentamycin. Differentiation medium contained IMDM medium supplemented with 2% Horse Serum, 100 U/ml Penicillin, 100 μg/ml Streptomycin. Fusion index was determined as the number of nuclei in sarcomeric myosin-expressing cells with more than 2 nuclei vs the total number of nuclei.
Satellite cells isolated from newborn alpha-SG-null C57BL/6 mice and plated at low density (6×10^3 cells/cm^2) were maintained for 48 h in growth medium, and then switched to the differentiating medium in the presence or absence of ISMN, ISDN, aspirin, ibuprofen, ISMN plus aspirin or ISDN plus ibuprofen.

[6] = tested on: alpha-SG-null C57BL/6 mouse; assay: In vivo experiments: histological, functional and biochemical alterations overall; details: alpha-SG-null mice, 30 days in the diet, vs control
Experimental: as §1, §2
The effects of the different drugs and their combination on the number of inflammatory infiltrates, the number of necrotic fibers per section, creatine kinase activity and free wheel distance ran are shown in Table I.

[7] = serum, alpha-SG-null mice, drugs daily in the diet, 30 days of treatment, n = 4
[8] = 48 hours of treatment in differentiating medium
[9] = 72 hours of treatment in differentiating medium

SMILES	N° of inflammatory infiltrates/sections [1]	N° of necrotic fibres/section [2]	CK level [3, 7] [U/l]	Free wheel test [4] [km/24 h]	Fusion index [5, 8] [%]	Fusion index [5, 9] [%]	Effect on the parameters measured (histological, functional and biochemical alterations), in words [6]	CK level ([3]; mouse, in vivo) [U/l]	Fusion index compared to control cells, in words [5]
CC(C)Cc1ccc(C(C)C(=O)O)cc1 (stereo not drawn) [Ibuprofen]	116.1 ± 11.1°	269.0 ± 34.3	851 ± 41	0.12 ± 0.01	21 ± 1.2	42 ± 2.3	did not have significant effects	–	–
O=[N+]([O-])O[C@@H]1CO[C@H]2[C@@H]1OC[C@@H]2O [ISMN, isosorbide-mononitrate]	190.2 ± 33.2	238.0 ± 27.2	–	0.18 ± 0.03	41 ± 2.2	76 ± 3.3	did not have significant effects	787 ± 33	effective on their own
O=[N+]([O-])O[C@H]1CO[C@H]2[C@@H]1OC[C@H]2O[N+](=O)[O-] [ISDN, isosorbide dinitrate]	–	–	–	–	–	–	did not have significant effects	–	effective on their own
CC(=O)Oc1ccccc1C(=O)O [Aspirin]	122.2 ± 17.1°	249.0 ± 32.1	841 ± 33	0.15 ± 0.02	20 ± 1.9	43 ± 1.7	did not have significant effects	–	–
C[C@]12C=CC(=O)C=C1CC[C@@H]1[C@@H]2[C@@H](O)C[C@@]2(C)[C@H]1CC[C@]2(O)C(=O)CO [Prednisolone]	103.4 ± 12.0	217.3 ± 37.3	757.6 ± 37.5	0.38 ± 0.1	18 ± 0.9	41 ± 2.0	–	–	–
